According to patent US8741897B2, “Glucocorticoid mimetics, methods of making them, pharmaceutical compositions and uses thereof” (Boehringer Ingelheim Pharmaceuticals Inc., priority 2003, dated 2014):

Legend:
[1] = biological target: T1, human glucocorticoid receptor (GR) complex (Homo sapiens, UniProt P04150); assay: Glucocorticoid receptor competitive binding assay (fluorescence polarization, TAMRA-labeled dexamethasone probe); conditions: compounds of Formula (IA)
T1 construct: made in house; host or cells: insect expression system (baculovirus lysate)
T1 sequence (P04150 1-777): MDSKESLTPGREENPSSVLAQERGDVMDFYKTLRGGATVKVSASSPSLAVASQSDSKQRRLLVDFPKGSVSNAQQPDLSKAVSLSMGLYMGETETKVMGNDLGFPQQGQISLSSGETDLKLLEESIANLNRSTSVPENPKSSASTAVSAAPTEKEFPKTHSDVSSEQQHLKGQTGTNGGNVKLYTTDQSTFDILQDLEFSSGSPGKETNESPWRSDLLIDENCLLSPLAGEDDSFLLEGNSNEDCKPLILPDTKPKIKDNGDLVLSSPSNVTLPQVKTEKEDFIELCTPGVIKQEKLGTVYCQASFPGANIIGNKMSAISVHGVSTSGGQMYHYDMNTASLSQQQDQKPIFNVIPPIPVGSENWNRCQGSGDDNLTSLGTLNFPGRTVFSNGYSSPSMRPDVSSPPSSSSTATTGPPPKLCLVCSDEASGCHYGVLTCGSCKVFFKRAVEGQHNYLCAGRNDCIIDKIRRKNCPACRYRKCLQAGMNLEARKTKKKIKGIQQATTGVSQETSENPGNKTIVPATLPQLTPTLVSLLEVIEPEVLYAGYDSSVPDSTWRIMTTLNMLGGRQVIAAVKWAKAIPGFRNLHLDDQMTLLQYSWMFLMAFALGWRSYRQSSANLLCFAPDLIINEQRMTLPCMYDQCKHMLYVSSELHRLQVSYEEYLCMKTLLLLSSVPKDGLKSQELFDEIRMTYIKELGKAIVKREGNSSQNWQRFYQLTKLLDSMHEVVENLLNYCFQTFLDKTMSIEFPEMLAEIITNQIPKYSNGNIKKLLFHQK
Procedure, shortened: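 Fluorescence-polarization competition against 15 nM TAMRA-dexamethasone (stock added to the mix) for human GR complex from baculovirus lysate diluted 1:170. Buffer: 10 mM TES, 50 mM KCl, 20 mM Na2MoO4, 1.5 mM EDTA, 0.04% CHAPS, 10% glycerol, 1 mM DTT, pH 7.4. IC50 from 4-parameter logistic fit.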

[2] = system: glucocorticoid receptor function; assay: one or more of the above assays (GR binding and glucocorticoid receptor cell assays: aromatase, IL-6, TAT, MMTV-Luc, IL-8, ICAM-Luc); type: cell-based; conditions: assay not specified per compound

| SMILES | activity in the GR binding assay [1] | activity as agonists of the glucocorticoid receptor function in one or more of the above assays [2] |
| --- | --- | --- |
| Cc1cc(C)c(O)c(C(C)(C)CC(O)(Cc2[nH]c3ccccc3c2C#N)C(F)(F)F)c1 (stereo not shown) [2-[2-Hydroxy-4-(2-hydroxy-3,5-dimethylphenyl)-4-methyl-2-trifluoromethylpentyl]-1H-indole-3-carbonitrile] | potent activity | potent agonists |
| COc1ccc(F)cc1C(C)(C)CC(O)(Cc1cc2cncnc2[nH]1)C(F)(F)F (stereo not shown) [1,1,1-Trifluoro-4-(5-fluoro-2-methoxyphenyl)-4-methyl-2-(7H-pyrrolo[2,3-d]pyrimidin-6-ylmethyl)pentan-2-ol] | potent activity | potent agonists |
| CSc1cc2c(c(C(C)(C)CC(O)(Cc3[nH]c4ccccc4c3C#N)C(F)(F)F)c1)OCC2 (stereo not shown) [2-[2-Hydroxy-4-methyl-4-(5-methylsulfanyl-2,3-dihydrobenzofuran-7-yl)-2-trifluoromethylpentyl]-1H-indole-3-carbonitrile] | potent activity | potent agonists |
| Cc1cc(CC(O)(CC(C)(C)c2ccc(F)cc2)C(F)(F)F)c2ccccc2n1 (stereo not shown) [1,1,1-Trifluoro-4-(4-fluorophenyl)-4-methyl-2-(2-methylquinolin-4-ylmethyl)pentan-2-ol] | potent activity | potent agonists |
| Cc1cccc(C)c1C(C)(C)CC(O)(Cc1cc2ccccc2[nH]1)C(F)(F)F (stereo not shown) [4-(2,6-Dimethylphenyl)-1,1,1-trifluoro-2-(1H-indol-2-ylmethyl)-4-methylpentan-2-ol] | potent activity | potent agonists |
| COc1cc2cc(CC(O)(CC(C)(C)c3cc(F)ccc3C)C(F)(F)F)[nH]c2cn1 (stereo not shown) [1,1,1-Trifluoro-4-(5-fluoro-2-methylphenyl)-2-(5-methoxy-1H-pyrrolo[2,3-c]pyridin-2-ylmethyl)-4-methylpentan-2-ol] | potent activity | potent agonists |
| CC(C)(CC(O)(Cc1cc2cc(C(F)(F)F)ccc2[nH]1)C(F)(F)F)c1cc(F)ccc1O (stereo not shown) [4-Fluoro-2-[4,4,4-trifluoro-3-hydroxy-1,1-dimethyl-3-(5-trifluoromethyl-1H-indol-2-ylmethyl)butyl]phenol] | potent activity | potent agonists |
| COc1ccc(S(C)(=O)=O)cc1C(C)(C)CC(O)(Cc1[nH]c2ccccc2c1C#N)C(F)(F)F (stereo not shown) [2-[2-Hydroxy-4-(5-methanesulfonyl-2-methoxyphenyl)-4-methyl-2-trifluoromethylpentyl]-1H-indole-3-carbonitrile] | potent activity | potent agonists |
| Cc1cc(CC(O)(CC(C)(C)c2ccc(F)cc2)C(F)(F)F)cc(C)n1 (stereo not shown) [2-(2,6-Dimethylpyridin-4-ylmethyl)-1,1,1-trifluoro-4-(4-fluorophenyl)-4-methylpentan-2-ol] | potent activity | potent agonists |
| COc1ccc(C)cc1C(C)(C)CC(O)(Cc1ccnc2ccccc12)C(F)(F)F (stereo not shown) [1,1,1-Trifluoro-4-(2-methoxy-5-methylphenyl)-4-methyl-2-quinolin-4-ylmethylpentan-2-ol] | potent activity | potent agonists |
| CC(C)(CC(O)(Cc1cc2cc(C#N)ccc2[nH]1)C(F)(F)F)c1cccc(C2OCCO2)c1 (stereo not shown) [2-[4-(3-[1,3]Dioxolan-2-ylphenyl)-2-hydroxy-4-methyl-2-trifluoromethylpentyl]-1H-indole-5-carbonitrile] | potent activity | potent agonists |
| Cc1cccc(C(C)(C)CC(O)(Cc2ccnc3ccccc23)C(F)(F)F)c1 (stereo not shown) [1,1,1-Trifluoro-4-methyl-2-quinolin-4-ylmethyl-4-m-tolylpentan-2-ol] | potent activity | potent agonists |
| COc1ccc(F)cc1C(C)(C)CC(O)(Cc1cc2cc(C(=O)N3CCC(O)C3)ccc2[nH]1)C(F)(F)F (stereo not shown) [{2-[4-(5-Fluoro-2-methoxyphenyl)-2-hydroxy-4-methyl-2-trifluoromethylpentyl]-1H-indol-5-yl}(3-hydroxypyrrolidin-1-yl)methanone] | potent activity | potent agonists |
| CC(C)(CC(O)(Cc1cc2ccccc2[nH]1)C(F)(F)F)c1ccccc1C(F)(F)F (stereo not shown) [1,1,1-Trifluoro-2-(1H-indol-2-ylmethyl)-4-methyl-4-(2-trifluoromethylphenyl)pentan-2-ol] | potent activity | potent agonists |
| Cc1cc(CC(O)(CC(C)(C)c2cc(F)ccc2C)C(F)(F)F)cc(C)n1 (stereo not shown) [2-(2,6-Dimethylpyridin-4-ylmethyl)-1,1,1-trifluoro-4-(5-fluoro-2-methylphenyl)-4-methylpentan-2-ol] | potent activity | potent agonists |
| CC(C)(CC(O)(Cn1ccc2ncccc21)C(F)(F)F)c1cc(Cl)cc2c1OCC2 (stereo not shown) [4-(5-Chloro-2,3-dihydrobenzofuran-7-yl)-1,1,1-trifluoro-4-methyl-2-pyrrolo[3,2-b]pyridin-1-ylmethylpentan-2-ol] | potent activity | potent agonists |
| COc1ccc(F)cc1C(C)(C)CC(O)(Cc1cc2c(OC)ncnc2[nH]1)C(F)(F)F (stereo not shown) [1,1,1-Trifluoro-4-(5-fluoro-2-methoxyphenyl)-2-(4-methoxy-7H-pyrrolo[2,3-d]pyrimidin-6-ylmethyl)-4-methylpentan-2-ol] | potent activity | potent agonists |
| COC(=O)CCCNC(=O)c1ccc2[nH]c(CC(O)(CC(C)(C)c3cc(F)ccc3OC)C(F)(F)F)cc2c1 (stereo not shown) [4-({2-[4-(5-Fluoro-2-methoxyphenyl)-2-hydroxy-4-methyl-2-trifluoromethylpentyl]-1H-indole-5-carbonyl}amino)butyric acid methyl ester] | potent activity | potent agonists |
| CN(C)Cc1cccc(C(C)(C)CC(O)(Cc2cc3cc(C#N)ccc3[nH]2)C(F)(F)F)c1 (stereo not shown) [2-[4-(3-Dimethylaminomethylphenyl)-2-hydroxy-4-methyl-2-trifluoromethylpentyl]-1H-indole-5-carbonitrile] | potent activity | potent agonists |
| CC(C)(CC(O)(Cc1cc2ccccc2[nH]1)C(F)(F)F)c1cccc(Cl)c1 (stereo not shown) [4-(3-Chlorophenyl)-1,1,1-trifluoro-2-(1H-indol-2-ylmethyl)-4-methylpentan-2-ol] | potent activity | potent agonists |
| Cc1cc2c(c(C(C)(C)CC(O)(Cc3cc4cnccc4[nH]3)C(F)(F)F)c1)OCC2 (stereo not shown) [1,1,1-Trifluoro-4-methyl-4-(5-methyl-2,3-dihydrobenzofuran-7-yl)-2-(1H-pyrrolo[3,2-c]pyridin-2-ylmethyl)pentan-2-ol] | potent activity | potent agonists |
| COc1ccc(F)cc1C(C)(C)CC(O)(Cc1cc2cnncc2s1)C(F)(F)F (stereo not shown) [1,1,1-Trifluoro-4-(5-fluoro-2-methoxyphenyl)-4-methyl-2-thieno[2,3-d]pyridazin-2-ylmethylpentan-2-ol] | potent activity | potent agonists |
| Cc1ccc(F)cc1C(C)(C)CC(O)(Cc1cc2cc(N(C)C)ncc2[nH]1)C(F)(F)F (stereo not shown) [2-(5-Dimethylamino-1H-pyrrolo[2,3-c]pyridin-2-ylmethyl)-1,1,1-trifluoro-4-(5-fluoro-2-methylphenyl)-4-methylpentan-2-ol] | potent activity | potent agonists |
